Experimental data published in the NIST ThermoML archive (doi:10.1021/acs.jced.5b00922).

Assay: mn = molality of the nth substance listed, in mol/kg
Settings: 100 kPa, Liquid; for viscosity: Capillary tube (Ostwald / Ubbelohde) method; for mass density: Pycnometric method

NCCCNCCCN [bis(3-aminopropyl)amine] + O
Settings | mass density [kg/m3] | viscosity [mPa·s]
298 K, m1 = 0.102 | 997.56 | 0.95
298 K, m1 = 0.313 | 997.47 | 1.07
298 K, m1 = 0.537 | 997.32 | 1.23
298 K, m1 = 0.773 | 997.12 | 1.41
298 K, m1 = 1.024 | 996.9 | 1.57
298 K, m1 = 1.291 | 996.71 | 1.74
303 K, m1 = 0.102 | 996.21 | 0.84
303 K, m1 = 0.313 | 996.12 | 0.95
303 K, m1 = 0.537 | 995.98 | 1.09
303 K, m1 = 0.773 | 995.83 | 1.24
303 K, m1 = 1.024 | 995.67 | 1.39
303 K, m1 = 1.291 | 995.53 | 1.55
308 K, m1 = 0.102 | 994.48 | 0.76
308 K, m1 = 0.313 | 994.37 | 0.85
308 K, m1 = 0.537 | 994.17 | 0.98
308 K, m1 = 0.773 | 994 | 1.1
308 K, m1 = 1.024 | 993.82 | 1.24
308 K, m1 = 1.291 | 993.64 | 1.38
313 K, m1 = 0.102 | 992.55 | 0.69
313 K, m1 = 0.313 | 992.43 | 0.77
313 K, m1 = 0.537 | 992.27 | 0.88
313 K, m1 = 0.773 | 992.1 | 0.99
313 K, m1 = 1.024 | 991.92 | 1.11
313 K, m1 = 1.291 | 991.73 | 1.23
318 K, m1 = 0.102 | 990.18 | 0.61
318 K, m1 = 0.313 | 989.94 | 0.69
318 K, m1 = 0.537 | 989.71 | 0.8
318 K, m1 = 0.773 | 989.48 | 0.9
318 K, m1 = 1.024 | 989.3 | 1
318 K, m1 = 1.291 | 989.09 | 1.11
323 K, m1 = 0.102 | 987.58 | 0.55
323 K, m1 = 0.313 | 987.36 | 0.63
323 K, m1 = 0.537 | 987.13 | 0.73
323 K, m1 = 0.773 | 986.93 | 0.81
323 K, m1 = 1.024 | 986.74 | 0.9
323 K, m1 = 1.291 | 986.55 | 0.98
